Experimental data taken from patent publication US7288622B1, “Composition for treatment of burns and wounds” (Issar Pharmaceuticals Pvt Ltd, priority 2006, dated 2007).
Converted amounts (≈) assume the structure as drawn. Residues, ends and D or L forms follow the SMILES beside them.

Tests used:
[1] = system: mice; assay: Acute toxicity test of the peptide in mice; type: in vivo; details: 12.53 mg/kg intraperitoneal, single dose, inspected at 3rd, 6th, 12th and 24th hour, animals active on 14th day
Procedure: (§1) The safety of the peptide was tested with mice and rats at age of 4 to 6 weeks. The tests were conducted with five female mice and rats and five male mice and rats. The dose of the peptide injected intraperitoneal was 8.95 mg/kg for rats and 12.53 mg/kg for mice. The acute toxicity test was conducted at 3rd, 6th, 12th and 24th hour after exposure to the peptide. […] The animals were active still on 14th day.

[2] = physchem; type: physicochemical
Text: The molecular weight of the peptide is 2776 and 3388 with counter ions. The peptide is water-soluble and forms an alpha helical secondary protein structure.

[3] = system: rats; assay: Acute toxicity test of the peptide in rats; type: in vivo; details: 8.95 mg/kg intraperitoneal, single dose, inspected at 3rd, 6th, 12th and 24th hour, animals active on 14th day
Procedure: as §1

C[C@H](NC(=O)[C@H](Cc1ccccc1)NC(=O)[C@H](C)NC(=O)[C@H](Cc1ccccc1)NC(=O)[C@H](CCCCN)NC(=O)[C@H](C)NC(=O)[C@H](Cc1ccccc1)NC(=O)[C@H](CCCCN)NC(=O)[C@H](CCCCN)NC(=O)[C@H](C)NC(=O)[C@H](Cc1ccccc1)NC(=O)[C@H](CCCCN)NC(=O)[C@H](CCCCN)NC(=O)[C@H](Cc1ccccc1)NC(=O)[C@H](CCCCN)NC(=O)[C@H](CCCCN)NC(=O)[C@H](C)NC(=O)[C@H](Cc1ccccc1)NC(=O)[C@H](CCCCN)NC(=O)[C@H](CCCCN)NC(=O)[C@H](C)NC(=O)[C@@H](N)Cc1ccccc1)C(=O)N[C@@H](Cc1ccccc1)C(=O)O [peptide] (H-FAKKFAKKFKKFAKKFAKFAFAF-OH; N-terminus and C-terminus assumed)
Acute lethality [1]: No lethality was found
Solubility in 10% DMSO in saline [2]: 32.25 mM (≈ 89.5 mg/mL)
solubility ([2]; saline or isotonic): 31.6 mM (≈ 87.6 mg/mL)
Acute lethality [3]: No lethality was found
